Measured values as given in ChEMBL document CHEMBL1147504, “Synthesis of methylphenidate analogues and their binding affinities at dopamine and serotonin transport sites” (Bioorg Med Chem Lett, 2004).

How the values were obtained:
[1] = biological target: Sodium-dependent serotonin transporter (Rattus norvegicus, UniProt P31652); assay: Ability to displace 0.4 nM [3H]paroxetine binding to serotonin transporter in rat frontal cortex; type: tissue-based
[2] = biological target: T1, Sodium-dependent dopamine transporter (Rattus norvegicus, UniProt P23977)
Description: Potency of inhibiting 10 pM [125I]RTI-55 binding to dopamine transporter in rat striatal membranes

[3] = […]; type: tissue-based, Frontal cortex
Dopamine receptor [4] = assay: Potency of inhibiting [3H]WIN-35428 binding to […] in rat striatal membranes; type: cell membranes, Membrane
Dopamine receptor [5] = biological target: Dopamine receptor
Description: Potency of inhibiting 10 pM [125I]-RTI-55 binding to dopamine receptor in rat striatal membranes

[6] = biological target: T1, Sodium-dependent dopamine transporter; assay: Inhibitory activity against dopamine transporter in rat striatal membranes; type: cell membranes, Striatum, Membrane

Sequence of Sodium-dependent serotonin transporter (P31652 whole entry): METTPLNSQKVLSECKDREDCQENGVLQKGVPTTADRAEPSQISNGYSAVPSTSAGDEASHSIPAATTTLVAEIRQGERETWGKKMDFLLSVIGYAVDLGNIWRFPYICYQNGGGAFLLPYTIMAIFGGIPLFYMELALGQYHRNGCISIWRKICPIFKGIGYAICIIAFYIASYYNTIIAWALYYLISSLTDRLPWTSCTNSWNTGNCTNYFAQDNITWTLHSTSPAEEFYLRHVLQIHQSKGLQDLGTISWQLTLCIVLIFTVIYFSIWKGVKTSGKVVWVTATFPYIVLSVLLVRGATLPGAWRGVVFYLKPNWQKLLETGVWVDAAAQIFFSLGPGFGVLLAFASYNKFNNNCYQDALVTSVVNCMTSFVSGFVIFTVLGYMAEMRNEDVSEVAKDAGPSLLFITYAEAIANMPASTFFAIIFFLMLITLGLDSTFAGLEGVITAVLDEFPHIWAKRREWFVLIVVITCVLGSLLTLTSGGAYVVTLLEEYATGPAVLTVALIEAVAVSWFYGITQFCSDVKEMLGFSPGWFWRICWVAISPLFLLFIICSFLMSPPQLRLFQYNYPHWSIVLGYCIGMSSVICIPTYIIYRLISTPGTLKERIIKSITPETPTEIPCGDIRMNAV
T1 sequence (P23977 whole entry): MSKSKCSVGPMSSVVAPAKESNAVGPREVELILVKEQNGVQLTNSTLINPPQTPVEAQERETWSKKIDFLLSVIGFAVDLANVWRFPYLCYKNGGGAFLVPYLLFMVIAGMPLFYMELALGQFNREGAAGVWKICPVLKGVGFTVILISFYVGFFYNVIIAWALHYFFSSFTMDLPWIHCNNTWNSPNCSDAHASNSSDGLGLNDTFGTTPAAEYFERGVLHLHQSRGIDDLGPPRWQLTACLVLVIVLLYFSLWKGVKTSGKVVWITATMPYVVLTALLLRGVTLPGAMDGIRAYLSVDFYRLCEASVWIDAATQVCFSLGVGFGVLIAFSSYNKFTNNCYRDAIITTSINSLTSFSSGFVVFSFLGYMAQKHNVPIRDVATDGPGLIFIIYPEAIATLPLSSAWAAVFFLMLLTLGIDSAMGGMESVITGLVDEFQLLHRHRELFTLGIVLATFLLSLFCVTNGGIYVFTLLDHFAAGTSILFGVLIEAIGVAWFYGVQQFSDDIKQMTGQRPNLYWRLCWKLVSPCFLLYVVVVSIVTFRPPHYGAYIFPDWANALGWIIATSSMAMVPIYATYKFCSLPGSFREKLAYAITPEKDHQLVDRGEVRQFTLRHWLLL

Work on `COC(=O)[C@H](c1ccc2ccccc2c1)[C@@H]1CCCN1` (racemic) yielded a Ki [1] of 4 nM and an IC50 [2] of 805 nM.
Work on `COC(=O)[C@H](c1ccc(Cl)cc1)[C@H]1CCCN1` (racemic) yielded a Ki [1] of 1080 nM and an IC50 [2] of 272 nM.
`COC(=O)[C@H](c1ccccc1)[C@@H]1CCCN1` (racemic) gave a Ki [1] greater than 10000 nM and an IC50 [2] greater than 1000 nM.
For `COC(=O)[C@H](c1ccc2cc(Br)ccc2c1)[C@@H]1CCCN1`, the Ki [1] was 5.5 nM and the IC50 [2] was 446 nM.
Compound `COC(=O)[C@H](c1ccc2cc(Br)ccc2c1)[C@@H]1CCCN1` (racemic) has a Ki [1] of 11.4 nM and an IC50 [2] of 195 nM.
Compound `COC(=O)[C@H](c1ccc(Cl)c(Cl)c1)[C@H]1CCCCN1.Cl` (racemic) has a Ki [3] greater than 10000 nM, an IC50 (Dopamine receptor [4]) of 5.3 nM and an IC50 (Dopamine receptor [5]) of 2.67 nM.
`COC(=O)[C@H](c1ccc2ccccc2c1)[C@@H]1CCCCN1.Cl` (racemic) gave a Ki [3] of 105 nM and an IC50 (Dopamine receptor [5]) of 2080 nM.
In the case of `COC(=O)[C@H](c1ccc2cc(OC)ccc2c1)[C@@H]1CCCN1` (racemic), the Ki [1] is reported as 245 nM.
With `COC(=O)[C@H](c1ccc(C)cc1)[C@@H]1CCCN1` (racemic) the Ki [1] was greater than 10000 nM and the IC50 [2] was greater than 1000 nM.
For `COC(=O)[C@H](c1ccc(C)cc1)[C@H]1CCCN1` (racemic), the Ki [1] was greater than 10000 nM and the IC50 [2] was 1930 nM.
For `COC(=O)[C@H](c1ccc(Cl)cc1)[C@@H]1CCCN1` (racemic), the Ki [1] was 1900 nM and the IC50 [2] was greater than 1000 nM.
`COC(=O)[C@H](c1ccc(-c2ccccc2)cc1)[C@H]1CCCCN1.Cl` (racemic) showed a Ki [3] greater than 10000 nM and an IC50 (Dopamine receptor [5]) of 1020 nM.
Work on `COC(=O)[C@H](c1ccc(Cl)cc1)[C@@H]1CCCCN1` (racemic) yielded a Ki [3] greater than 10000 nM.
`COC(=O)[C@H](c1ccc2cc(C)ccc2c1)[C@@H]1CCCN1` (stereo in doubt) gave a Ki [1] of 2.3 nM and an IC50 [2] of 850 nM.
For `COC(=O)[C@H](c1ccc2ccccc2c1)[C@H]1CCCCN1.Cl`, the Ki [3] was 94.8 nM and the IC50 (Dopamine receptor [5]) was 11.1 nM.
With `COC(=O)[C@H](c1ccc2ccccc2c1)[C@H]1CCCCN1` (racemic) the Ki [3] was 71.6 nM.
Compound `COC(=O)[C@H](c1ccc(-c2ccccc2)cc1)[C@@H]1CCCCN1.Cl` (racemic) has a Ki [3] greater than 10000 nM and an IC50 (Dopamine receptor [5]) of 6470 nM.
With `COC(=O)[C@H](c1ccc2cc(OC)ccc2c1)[C@@H]1CCCN1` the Ki [1] was 54.6 nM.
`COC(=O)[C@H](c1ccc(C)cc1)[C@H]1CCCCN1.Cl` (racemic) showed a Ki [3] greater than 10000 nM, an IC50 (Dopamine receptor [4]) of 33 nM and an IC50 (Dopamine receptor [5]) of 114 nM.
`COC(=O)[C@H](c1ccc(C)cc1)[C@@H]1CCCCN1.Cl` (racemic) showed a Ki [3] greater than 10000 nM and an IC50 (Dopamine receptor [5]) of 7430 nM.
Compound `COC(=O)[C@@H](c1ccc2ccccc2c1)[C@H]1CCCN1` has a Ki [1] of 2020 nM.
Work on `COC(=O)[C@H](c1ccccc1)[C@@H]1CCCCN1.Cl` (racemic) yielded a Ki [3] greater than 10000 nM and an IC50 (Dopamine receptor [5]) greater than 1000 nM.
Work on `COC(=O)[C@H](c1ccc(Cl)cc1)[C@H]1CCCCN1.Cl` (racemic) yielded a Ki [3] of 2220 nM, an IC50 (Dopamine receptor [4]) of 20.6 nM and an IC50 (Dopamine receptor [5]) of 91.2 nM.
For `COC(=O)[C@H](c1ccc2cc(C)ccc2c1)[C@@H]1CCCN1` (stereo in doubt; 10i), the Ki [1] was 3.2 nM and the IC50 [2] was 1410 nM.
`COC(=O)[C@H](c1ccc2ccccc2c1)[C@@H]1CCCN1` showed a Ki [1] of 2.5 nM and an IC50 [2] of 465 nM.
`COC(=O)[C@H](c1ccc(Br)cc1)[C@@H]1CCCN1` (racemic) showed a Ki [1] greater than 10000 nM and an IC50 [2] of 637 nM.
`COC(=O)[C@H](c1ccccc1)[C@H]1CCCN1` (racemic) gave an IC50 [6] of 1340 nM, a Ki [1] greater than 10000 nM and an IC50 [2] of 3160 nM.
With `COC(=O)[C@H](c1ccccc1)[C@H]1CCCCN1.Cl` (racemic) [DEXMETHYLPHENIDATE HYDROCHLORIDE] the Ki [3] was greater than 10000 nM, the IC50 (Dopamine receptor [4]) was 83 nM and the IC50 (Dopamine receptor [5]) was 164 nM.
With `COC(=O)[C@H](c1ccc(Cl)c(Cl)c1)[C@@H]1CCCCN1.Cl` (racemic) the Ki [3] was greater than 10000 nM and the IC50 (Dopamine receptor [5]) was 33.8 nM.
